Test results taken from patent publication US9226916B2, “Pyrrolidine derivatives” (HOFFMANN-LA ROCHE INC., priority 2009, dated 2016).
Read-outs that look alike come from different tables or passages of the source.

Target: T1, recombinant human NK3 receptor (Homo sapiens, UniProt P29371)
T1 construct: expressed in transfected cells; host or cells: HEK293 cells, transient expression; membranes
T1 sequence (P29371 1-465): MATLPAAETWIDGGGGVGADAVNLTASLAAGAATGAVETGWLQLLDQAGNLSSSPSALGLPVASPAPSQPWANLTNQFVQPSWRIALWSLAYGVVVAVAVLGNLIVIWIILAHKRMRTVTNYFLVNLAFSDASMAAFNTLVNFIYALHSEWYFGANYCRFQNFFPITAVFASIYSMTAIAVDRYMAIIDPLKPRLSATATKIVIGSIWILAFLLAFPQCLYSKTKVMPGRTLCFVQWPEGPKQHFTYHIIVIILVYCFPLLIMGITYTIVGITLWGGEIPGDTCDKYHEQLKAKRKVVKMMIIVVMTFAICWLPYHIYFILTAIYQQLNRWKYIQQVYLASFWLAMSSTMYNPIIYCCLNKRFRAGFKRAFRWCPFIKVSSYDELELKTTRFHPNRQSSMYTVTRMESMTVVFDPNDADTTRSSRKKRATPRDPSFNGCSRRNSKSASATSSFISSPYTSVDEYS
Test: [3H]SR142801 competition binding assay

[1] = hNK-3 receptor affinity, membranes from HEK293 cells transiently expressing recombinant human NK3 receptor, [3H]SR142801, Cheng-Prussoff, read-out: Data Ki

Ki [1] | Structure (SMILES) | Ki
– | CC(C)COC(=O)N(C)[C@@H]1CN(C(=O)C2CCN(C(=O)C3(C)CC3)CC2)C[C@H]1c1ccc(Cl)cc1 [Example 141, {(3S,4R)-4-(4-Chloro-phenyl)-1-[1-(1-methyl-cyclopropanecarbonyl)-piperidine-4-carbonyl]-pyrrolidin-3-yl}-methyl-carbamic acid isobutyl ester] | 13.5 nM
3.2 nM | CN(C(=O)OC1CCCCC1)[C@@H]1CN(C(=O)C2CCN(c3ccc(C#N)cn3)CC2)C[C@H]1c1ccc(Cl)cc1 [Example 143, [(3S,4R)-4-(4-Chloro-phenyl)-1-(5′-cyano-3,4,5,6-tetrahydro-2H-[1,2′]bipyridinyl-4-carbonyl)-pyrrolidin-3-yl]-methyl-carbamic acid cyclohexyl ester] | –
21.1 nM | CN(C(=O)OCCC(F)(F)F)[C@@H]1CN(C(=O)C2CCN(c3ccc(C#N)cn3)CC2)C[C@H]1c1ccc(Cl)cc1 [Example 144, [(3S,4R)-4-(4-Chloro-phenyl)-1-(5′-cyano-3,4,5,6-tetrahydro-2H-[1,2′]bipyridinyl-4-carbonyl)-pyrrolidin-3-yl]-methyl-carbamic acid 3,3,3-trifluoro-propyl ester] | –
56.9 nM | CN(C(=O)OCCC(F)(F)F)[C@H]1CN(C(=O)C2CCN(c3ccc(C#N)cn3)CC2)C[C@@H]1c1ccc(Cl)cc1 [Example 145, [(3R,4S)-4-(4-Chloro-phenyl)-1-(5′-cyano-3,4,5,6-tetrahydro-2H-[1,2′]bipyridinyl-4-carbonyl)-pyrrolidin-3-yl]-methyl-carbamic acid 3,3,3-trifluoro-propyl ester] | –
– | CN(C(=O)Oc1ccc(F)cc1)[C@@H]1CN(C(=O)C2CCOC(C)(C)C2)C[C@H]1c1ccc(Cl)cc1 (stereo partly drawn) [Example 146, [(3S,4R)-4-(4-Chloro-phenyl)-1-(2,2-dimethyl-tetrahydro-pyran-4-carbonyl)-pyrrolidin-3-yl]-methyl-carbamic acid 4-fluoro-phenyl ester] | 6.8 nM
– | CN(C(=O)Oc1ccc(F)cc1)[C@@H]1CN(C(=O)C2CCCOC2)C[C@H]1c1ccc(Cl)cc1 (stereo partly drawn) [Example 147, [(3S,4R)-4-(4-Chloro-phenyl)-1-(tetrahydro-pyran-3-carbonyl)-pyrrolidin-3-yl]-methyl-carbamic acid 4-fluoro-phenyl ester] | 73.7 nM
– | COC1CC(C(=O)N2C[C@@H](N(C)C(=O)Oc3ccc(F)cc3)[C@H](c3ccc(Cl)cc3)C2)C1 (stereo partly drawn) [Example 149, [(3S,4R)-4-(4-Chloro-phenyl)-1-(3-methoxy-cyclobutanecarbonyl)-pyrrolidin-3-yl]-methyl-carbamic acid 4-fluoro-phenyl ester] | 90.8 nM
– | CN(C(=O)Oc1ccc(F)cc1)[C@@H]1CN(C(=O)C2CCN(C3CC3)CC2)C[C@H]1c1ccc(Cl)cc1 [Example 150, [(3S,4R)-4-(4-Chloro-phenyl)-1-(1-cyclopropyl-piperidine-4-carbonyl)-pyrrolidin-3-yl]-methyl-carbamic acid 4-fluoro-phenyl ester] | 15.6 nM
– | CN(C(=O)Oc1ccc(F)cc1)[C@@H]1CN(C(=O)C2CCN(C(=O)OC(C)(C)C)C2)C[C@H]1c1ccc(Cl)cc1 (stereo partly drawn) [Example 151, 3-{(3R,4S)-3-(4-Chloro-phenyl)-4-[(4-fluoro-phenoxycarbonyl)-methyl-amino]-pyrrolidine-1-carbonyl}-pyrrolidine-1-carboxylic acid tert-butyl ester] | 18.2 nM
14.7 nM | CN(C(=O)OC1CCCCC1)[C@@H]1CN(C(=O)C2CCN(C(=O)C3(C)CC3)CC2)C[C@H]1c1ccc(Cl)cc1 [Example 152, {(3S,4R)-4-(4-Chloro-phenyl)-1-[1-(1-methyl-cyclopropanecarbonyl)-piperidine-4-carbonyl]-pyrrolidin-3-yl}-methyl-carbamic acid cyclohexyl ester] | –
19.2 nM | CC(OC(=O)N(C)[C@@H]1CN(C(=O)C2CCN(c3ccc(C#N)cn3)CC2)C[C@H]1c1ccc(Cl)cc1)C1CC1 (stereo partly drawn) [Example 153, [(3S,4R)-4-(4-Chloro-phenyl)-1-(5′-cyano-3,4,5,6-tetrahydro-2H-[1,2′]bipyridinyl-4-carbonyl)-pyrrolidin-3-yl]-methyl-carbamic acid 1-cyclopropyl-ethyl ester] | –
18.3 nM | CN(C(=O)OC1CCOCC1)[C@@H]1CN(C(=O)C2CCN(c3ccc(C#N)cn3)CC2)C[C@H]1c1ccc(Cl)cc1 [Example 156, [(3S,4R)-4-(4-Chloro-phenyl)-1-(5′-cyano-3,4,5,6-tetrahydro-2H-[1,2′]bipyridinyl-4-carbonyl)-pyrrolidin-3-yl]-methyl-carbamic acid tetrahydro-pyran-4-yl ester] | –
– | CCC(C)OC(=O)N(C)[C@@H]1CN(C(=O)C2CCN(c3ccc(C#N)cn3)CC2)C[C@H]1c1ccc(Cl)cc1 (stereo partly drawn) [Example 157, [(3S,4R)-4-(4-Chloro-phenyl)-1-(5′-cyano-3,4,5,6-tetrahydro-2H-[1,2′]bipyridinyl-4-carbonyl)-pyrrolidin-3-yl]-methyl-carbamic acid sec-butyl ester] | 27.1 nM
12.5 nM | CN(C(=O)OCC(F)(F)F)[C@@H]1CN(C(=O)C2CCN(c3ccc(C#N)cn3)CC2)C[C@H]1c1ccc(Cl)cc1 [Example 158, [(3S,4R)-4-(4-Chloro-phenyl)-1-(5′-cyano-3,4,5,6-tetrahydro-2H-[1,2′]bipyridinyl-4-carbonyl)-pyrrolidin-3-yl]-methyl-carbamic acid 2,2,2-trifluoro-ethyl ester] | –
0.4 nM | CN(C(=O)O[C@H]1CC[C@H](C(F)(F)F)CC1)[C@@H]1CN(C(=O)C2CCN(c3ccc(C#N)cn3)CC2)C[C@H]1c1ccc(Cl)c(Cl)c1 [Example 159, [(3S,4R)-1-(5′-Cyano-3,4,5,6-tetrahydro-2H-[1,2′]bipyridinyl-4-carbonyl)-4-(3,4-dichloro-phenyl)-pyrrolidin-3-yl]-methyl-carbamic acid 4-trifluoromethyl-cyclohexyl ester] | –
– | Cc1ccc(N2CCC(C(=O)N3C[C@@H](N(C)C(=O)O[C@H]4CC[C@H](C(F)(F)F)CC4)[C@H](c4ccc(Cl)c(Cl)c4)C3)CC2)nn1 [Example 160, {(3S,4R)-4-(3,4-Dichloro-phenyl)-1-[1-(6-methyl-pyridazin-3-yl)-piperidine-4-carbonyl]-pyrrolidin-3-yl}-methyl-carbamic acid 4-trifluoromethyl-cyclohexyl ester] | 0.5 nM
– | CN(C(=O)O[C@H]1CC[C@H](C(F)(F)F)CC1)[C@@H]1CN(C(=O)C2CCOCC2)C[C@H]1c1ccc(Cl)c(Cl)c1 [Example 161, [(3S,4R)-4-(3,4-Dichloro-phenyl)-1-(tetrahydro-pyran-4-carbonyl)-pyrrolidin-3-yl]-methyl-carbamic acid 4-trifluoromethyl-cyclohexyl ester] | 7.4 nM
81.4 nM | CN(C(=O)OCC(F)(F)F)[C@@H]1CN(C(=O)C2CCN(C(=O)C3(C)CC3)CC2)C[C@H]1c1ccc(Cl)cc1 [Example 164, {(3S,4R)-4-(4-Chloro-phenyl)-1-[1-(1-methyl-cyclopropanecarbonyl)-piperidine-4-carbonyl]-pyrrolidin-3-yl}-methyl-carbamic acid 2,2,2-trifluoro ethyl ester] | –
36.4 nM | CC(OC(=O)N(C)[C@@H]1CN(C(=O)C2CCN(c3ccc(C#N)cn3)CC2)C[C@H]1c1ccc(Cl)cc1)C(F)(F)F (stereo partly drawn) [Example 166, [(3S,4R)-4-(4-Chloro-phenyl)-1-(5′-cyano-3,4,5,6-tetrahydro-2H-[1,2′]bipyridinyl-4-carbonyl)-pyrrolidin-3-yl]-methyl-carbamic acid 2,2,2-trifluoro-1-methyl-ethyl ester] | –
– | Cc1ccnc(N2CCC(C(=O)N3C[C@@H](N(C)C(=O)Oc4ccc(F)cc4)[C@H](c4ccc(Cl)cc4)C3)CC2)n1 [Example 167, {(3S,4R)-4-(4-Chloro-phenyl)-1-[1-(4-methyl-pyrimidin-2-yl)-piperidine-4-carbonyl]-pyrrolidin-3-yl}-methyl-carbamic acid 4-fluoro-phenyl ester] | 4.9 nM
– | CN(C(=O)Oc1ccc(F)cc1)[C@@H]1CN(C(=O)C2CCNC2)C[C@H]1c1ccc(Cl)cc1 (stereo partly drawn) [Example 168, [(3S,4R)-4-(4-Chloro-phenyl)-1-(pyrrolidine-3-carbonyl)-pyrrolidin-3-yl]-methyl-carbamic acid 4-fluoro-phenyl ester] | 98.4 nM
– | CN(C(=O)Oc1ccc(F)cc1)[C@@H]1CN(C(=O)C2CCN(c3ncc(F)cn3)CC2)C[C@H]1c1ccc(Cl)cc1 [Example 169, {(3S,4R)-4-(4-Chloro-phenyl)-1-[1-(5-fluoro-pyrimidin-2-yl)-piperidine-4-carbonyl]-pyrrolidin-3-yl}-methyl-carbamic acid 4-fluoro-phenyl ester] | 4.1 nM
– | CCC(=O)N1CCC(C(=O)N2C[C@@H](N(C)C(=O)Oc3ccc(F)cc3)[C@H](c3ccc(Cl)cc3)C2)C1 (stereo partly drawn) [Example 170, [(3S,4R)-4-(4-Chloro-phenyl)-1-(1-propionyl-pyrrolidine-3-carbonyl)-pyrrolidin-3-yl]-methyl-carbamic acid 4-fluoro-phenyl ester] | 8.3 nM
– | CN(C(=O)Oc1ccc(F)cc1)[C@@H]1CN(C(=O)C2CCN(C(=O)C3CC3)C2)C[C@H]1c1ccc(Cl)cc1 (stereo partly drawn) [Example 171, [(3S,4R)-4-(4-Chloro-phenyl)-1-(1-cyclopropanecarbonyl-pyrrolidine-3-carbonyl)-pyrrolidin-3-yl]-methyl-carbamic acid 4-fluoro-phenyl ester] | 9.5 nM
